4 compounds from ChEMBL document CHEMBL1126516, “Synthesis, biological activity and electrostatic properties of 3-[2-(dimethylamino)ethyl]-5-[(3-amino-1,2,4-thiadiazol-5-yl)methyl]-1H-indole, a novel 5-HT1D receptor agonist” (Bioorg Med Chem Lett, 1993) can be followed below.

For the assay, the species on record is Oryctolagus cuniculus. In words: Compound was tested for the contraction of New Zealand white rabbit saphenous vein. The class given is functional.

As for `CNS(=O)(=O)Cc1ccc2[nH]cc(CCN(C)C)c2c1`, a half-maximal effect (EC50) was put at 0.631 µM.

For `CN(C)CCc1c[nH]c2ccc(Cc3nc(N)ns3)cc12`, the EC50 is 0.01 µM.

For the compound `CN(C)CCc1c[nH]c2ccc(Cc3nc(N)no3)cc12`, the response was half-maximal at 0.501 µM (EC50).

`NCCc1c[nH]c2ccc(O)cc12` [SEROTONIN] had an EC50 of 0.158 µM.

A word on the EC50: it is the midpoint of the concentration-response curve.
